The target in test [1] is T1, M3 muscarinic receptor (hM3) (Homo sapiens, UniProt P20309).
T1 construct: expressed in transfected cells; membranes prepared
In words: Radioligand binding assay for muscarinic receptors (Assay Test Procedure B). The note with it: displacement of [3H]-NMS, CHO cell membranes. On the procedure:
CHO cell lines stably expressing cloned human hM1, hM2, hM3 and hM4 muscarinic receptor subtypes, respectively, were grown to near confluency in HAM's F-12 media supplemented with 10% FBS and 250 μg/mL Geneticin. The cells were grown in a 5% CO2, 37° C. incubator and lifted with 2 mM EDTA in dPBS. Cells were collected by 5 minute centrifugation at 650× g, and cell pellets were either stored frozen at −80° C. or membranes were prepared immediately for use. For membrane preparation, cell pellets were resuspended in lysis buffer and homogenized with a Polytron PT-2100 tissue disrupter (Kinematica AG; 20 seconds×2 bursts). Crude membranes were centrifuged at 40,000× g for 15 minutes at 4° C. […] The protein concentration of the membrane suspension was determined by the method described in Lowry et al., 1951, Journal of Biochemistry, 193, 265. […]
Radioligand binding assays for cloned human muscarinic receptors were performed in 96-well microtiter plates in a total assay volume of 100 μL. […] Filter plates were rinsed three times with wash buffer (10 mM HEPES) to remove unbound radioactivity. […] The plates were then counted in a PerkinElmer Topcount liquid scintillation counter (PerkinElmer Inc., Wellesley, Mass.). Binding data were analyzed by nonlinear regression analysis with the GraphPad Prism Software package (GraphPad Software, Inc., San Diego, Calif.) using the one-site competition model. […]
(In general: In a radioligand displacement assay an active substance lowers the binding of a labelled ligand.)

Test [2] deals with T2, human β2 adrenergic receptor (Homo sapiens, UniProt P07550).
T2 construct: expressed in transfected cells; membranes prepared
Briefly: Radioligand binding assay for human β2 adrenergic receptor (Assay Test Procedure A). The note with it: displacement of [3H]-dihydroalprenolol, CHO membranes. As to the method:
Chinese hamster ovarian (CHO) cell lines stably expressing cloned human β1, β2 or β3 adrenergic receptors, respectively, were grown to near confluency in Hams F-12 media with 10% FBS in the presence of 500 μg/mL Geneticin. The cell monolayer was lifted with 2 mM EDTA in PBS. Cells were pelleted by centrifugation at 1,000 rpm, and cell pellets were either stored frozen at −80° C. or membranes were prepared immediately for use. For preparation of β1 and β2 receptor expressing membranes, cell pellets were re-suspended in lysis buffer (10 mM HEPES/HCl, 10 mM EDTA, pH 7.4 at 4° C.) and homogenized using a tight-fitting Dounce glass homogenizer (30 strokes) on ice. […] The protein concentration of the membrane suspension was determined by the methods described in Lowry et al., 1951, Journal of Biological Chemistry, 193, 265; and Bradford, Analytical Biochemistry, 1976, 72, 248-54. […]
Binding assays were performed in 96-well microtiter plates in a total assay volume of 100 μL with 10-15 μg of membrane protein containing the human β1, β2 or β3 adrenergic receptors in assay buffer (75 mM Tris/HCl pH 7.4 at 25° C., 12.5 mM MgCl2, 1 mM EDTA, 0.2% BSA). […] Non-specific binding was determined in the presence of 10 μM propranolol. […] Filter plates were washed three times with filtration buffer (75 mM Tris/HCl pH 7.4 at 4° C., 12.5 mM MgCl2, 1 mM EDTA) to remove unbound radioactivity. […]

T1 sequence (P20309 whole entry): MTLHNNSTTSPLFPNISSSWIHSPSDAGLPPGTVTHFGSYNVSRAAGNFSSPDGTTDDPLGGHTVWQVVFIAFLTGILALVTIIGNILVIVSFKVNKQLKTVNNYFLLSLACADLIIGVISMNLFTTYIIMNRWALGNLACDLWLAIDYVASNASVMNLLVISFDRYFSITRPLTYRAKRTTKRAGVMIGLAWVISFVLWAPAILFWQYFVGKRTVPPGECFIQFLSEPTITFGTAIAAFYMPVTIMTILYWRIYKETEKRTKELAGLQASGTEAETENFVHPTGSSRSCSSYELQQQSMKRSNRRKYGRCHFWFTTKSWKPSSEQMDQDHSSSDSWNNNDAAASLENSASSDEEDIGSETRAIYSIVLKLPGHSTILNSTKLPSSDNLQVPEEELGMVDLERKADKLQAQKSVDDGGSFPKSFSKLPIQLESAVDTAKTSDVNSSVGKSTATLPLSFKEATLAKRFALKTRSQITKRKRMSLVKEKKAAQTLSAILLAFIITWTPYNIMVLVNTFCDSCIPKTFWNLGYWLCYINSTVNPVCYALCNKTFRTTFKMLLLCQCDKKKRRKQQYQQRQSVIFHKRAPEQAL
T2 sequence (P07550 whole entry): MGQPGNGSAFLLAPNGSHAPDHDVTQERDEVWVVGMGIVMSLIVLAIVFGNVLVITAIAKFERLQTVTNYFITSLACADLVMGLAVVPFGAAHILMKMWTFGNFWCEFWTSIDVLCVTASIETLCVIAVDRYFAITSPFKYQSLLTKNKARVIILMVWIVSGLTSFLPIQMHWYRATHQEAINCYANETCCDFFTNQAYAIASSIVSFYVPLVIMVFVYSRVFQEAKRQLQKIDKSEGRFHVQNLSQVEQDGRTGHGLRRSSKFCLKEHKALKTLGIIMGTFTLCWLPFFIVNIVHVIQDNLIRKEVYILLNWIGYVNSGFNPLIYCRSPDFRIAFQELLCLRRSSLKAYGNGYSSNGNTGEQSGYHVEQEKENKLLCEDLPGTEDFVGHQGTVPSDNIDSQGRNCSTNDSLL

On to `CN(CCCCCCCCCNC[C@H](O)c1ccc(O)c2[nH]c(=O)ccc12)CCC(C)(C)OC(=O)Nc1ccccc1-c1ccccc1` [Example 1, Biphenyl-2-ylcarbamic Acid 3-({9-[(R)-2-Hydroxy-2-(8-hydroxy-2-oxo-1,2-dihydro-quinolin-5-yl)ethylamino]nonyl}methylamino)-1,1-dimethylpropyl Ester], for which the Ki in test [1] and in test [2] was < 300 nM in each case.

For orientation: Ki means a dissociation constant, usually derived from enzyme kinetics or from competition with a known ligand. Lower therefore signals higher affinity.

Values taken from patent US7528253B2, “Compounds having β2 adrenergic receptor agonist and muscarinic receptor antagonist activity” (Theravance, Inc., priority 2004, dated 2009).
